# Read-outs that look alike come from different tables or passages of the source.
# Key:
# [1] = Lipophilicity by shake-flask method (n-octanol/saline or PBS); format: physicochemical; settings: room temperature; for LogD7.4: n-octanol/PBS; for LogP: n-octanol/saline solution
# Experimental: Lipophilicity was determined by partitioning between n-octanol and saline solution (LogP) or PBS (LogD7.4) at room temperature using the conventional shake-flask method. An aliquot of the formulated solution containing ~500 kBq of radiopharmaceuticals was added to a tube containing 6 mL of n-octanol/saline solution or n-octanol/PBS (1:1 v/v, LogP or LogD7.4, respectively). The tubes were shaken for 20 min, followed by centrifugation (5000× g for 5 min) and separation of the phases. Aliquots of 1 mL of the organic and the aqueous phases were taken, and the activity was measured using an automated gamma counter. The LogP or LogD7.4 were calculated as the decadic logarithm of [activity (cpm/mL) in n-octanol]/[(activity (cpm/mL) in saline solution or PBS].
# [2] = target: T1, recombinant hFAP (Homo sapiens, UniProt Q12884); test: Co-elution experiment with recombinant hFAP on PD-10 size exclusion columns; format: binding; settings: 500 kBq radioligand, hFAP 2 μM 100 μL, PD-10 column
# T1 sequence (Q12884 1-760): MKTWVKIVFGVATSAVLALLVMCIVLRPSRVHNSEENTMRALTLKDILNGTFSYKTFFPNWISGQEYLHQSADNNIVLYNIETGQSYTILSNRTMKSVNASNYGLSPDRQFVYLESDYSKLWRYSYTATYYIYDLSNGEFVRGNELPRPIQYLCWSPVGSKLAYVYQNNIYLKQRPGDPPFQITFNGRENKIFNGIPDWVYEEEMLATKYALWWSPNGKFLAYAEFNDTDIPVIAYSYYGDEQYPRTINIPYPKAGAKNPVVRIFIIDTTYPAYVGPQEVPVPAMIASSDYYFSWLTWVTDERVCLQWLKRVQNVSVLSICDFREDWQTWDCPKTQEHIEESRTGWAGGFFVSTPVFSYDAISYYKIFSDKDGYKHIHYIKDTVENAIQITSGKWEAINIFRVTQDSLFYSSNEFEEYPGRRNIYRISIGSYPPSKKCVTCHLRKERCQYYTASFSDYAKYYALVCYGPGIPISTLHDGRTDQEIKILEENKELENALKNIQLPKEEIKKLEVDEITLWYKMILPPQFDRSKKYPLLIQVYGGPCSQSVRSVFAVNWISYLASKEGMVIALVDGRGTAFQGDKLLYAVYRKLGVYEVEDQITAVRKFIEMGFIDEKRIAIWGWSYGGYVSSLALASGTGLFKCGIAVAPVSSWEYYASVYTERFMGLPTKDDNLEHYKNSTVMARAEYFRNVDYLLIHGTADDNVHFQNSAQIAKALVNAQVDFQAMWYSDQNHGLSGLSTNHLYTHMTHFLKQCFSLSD
# Experimental: To assess the binding properties of radiolabeled OncoFAP-derivatives preparations to hFAP, [^68Ga]/[^18F]AlF/[^177Lu]-OncoFAP derivatives (500 kBq) were incubated with hFAP (2 μM, 100 μL) and then loaded on PD-10 columns, pre-equilibrated with running buffer (50 mM Tris, 100 mM NaCl, and 1 mM ethylenediaminetetraacetic acid [EDTA], pH = 7.4) and eluted with running buffer. Fractions of the flow through (500 μL) were collected, and the radioactivity intensity was measured immediately on a gamma counter (λ = 511 KeV for gallium-68 and fluorine-18 and λ = 208 KeV for lutetium-177).
# [3] = target: hCAIX (Homo sapiens, UniProt Q16790); test: Co-elution experiment with hCAIX (non-target protein) on PD-10 columns; format: binding; settings: PD-10 column
# Experimental: NODAGA-OncoFAP labeling with 177Lu and characterization
# Figure S1. (A) Radiolabeling reaction scheme of OncoFAP-NODAGA with 177Lu in acetate buffer (pH=4) at 95°C for 15 min. (B) Coelution experiment of [177Lu]Lu-NODAGA-OncoFAP-with hFAP and hCAIX on PD-10 size exclusion chromatography columns. (C) Radio-HPLC analysis performed after labeling reaction.
# NODAGA-OncoFAP can be efficiently labeled with 177Lu by heating at 95°C in acetate buffer (pH=4) for 15 min. [Figure S1A] […]
# been observed. [Figure S1C] […]
# [4] = target: FAP; design: method as in PMID 33850024; settings: read-out: dissociation constant; cited from earlier work
# [5] = system: SK-RC-52.hFAP cells; test: Cell binding assay on FAP-positive SK-RC-52.hFAP cells; format: cell-based; settings: 0.1 MBq, 37 °C, 1.5 × 10^5 cells each tube
# Experimental: Cell binding assays were performed in triplicate on SK-RC-52.hFAP and SK-R-RC-52.wt cells (density of 1.5 × 10^5 cells each tube), growth in RPMI-1640 medium (Gibco) containing 10% Fetal Bovine Serum (Gibco) and 1% Antibiotic-Antimycotic (Gibco) at 37 °C in 5% carbon dioxide (CO2). After adding [^68Ga]Ga-DOTAGA-OncoFAP, [^177Lu]Lu-DOTAGA-OncoFAP or [^18F]AlF-NOTA-OncoFAP (10 µL, 0.1 MBq) to the culture medium, the cells were incubated at 37 °C for 10, 30, 60 min for ^68Ga-derivatives and 10, 30, 60, 120, 240 min for ^18F-derivatives or 10, 30, 60, 120, 240, 360 min and 24 and 48 h for the ^177Lu-derivative. As a control, nonspecific binding determination was carried out by incubating with the OncoFAP derivatives complex with the non-radioactive isotopes reference standard (100 µM) with the same cell lines for 5 min before incubation with the radiolabeled compounds. After incubation, the cell pellets were washed twice with 1 mL of cold PBS (pH 7.4), centrifuged (400× g, 5 min) and the pellet measured by an automatic gamma counter (WIZARD2, PerkinElmer, Waltham, MA, USA).
# [6] = system: HT-1080.hFAP tumors; test: In vivo biodistribution in mice bearing subcutaneous HT-1080.hFAP tumors
# Experimental: Tumor cells were grown to 80% confluence in Dulbecco’s Modified Eagle Medium (DMEM) supplemented with 10% Fetal Bovine Serum (Thermofisher, Waltham, MA, USA) and 1% antibiotic-antimycotic (Gibco) and detached with Trypsin-EDTA 0.05%. HT-1080.hFAP, cells (FAP positive cells) were resuspended in Hanks’ Balanced Salt Solution medium. Aliquots of 5 × 10^6 cells (100 μL of suspension) were injected subcutaneously in the right flanks of female athymic Balb/c AnNRj-Foxn1 mice (6 to 8 weeks of age, Janvier-labs, Le Genest-Saint-Isle, France). Female athymic Balb/c AnNRj-Foxn1 mice (6 to 8 weeks of age) were implanted in the right flank with HT-1080.hFAP tumors as described above. Tumors were allowed to grow to an average volume of 250 mm^3. Mice were randomized (n = 5 per group) and injected intravenously with radiolabeled preparations of [^18F]AlF-NOTA-OncoFAP (10 nmol/mice; 77 kBq; RCP:89%). Mice were euthanized 1 h after the injection by CO2 asphyxiation. Organs were extracted, weighted, and radioactivity was measured with a Packard Cobra Gamma Counter. Values are expressed as percent ID/g ± SD.
# [7] = system: FAP-expressing tumor models; design: method as in PMID 34957527; settings: cited from earlier work
# [8] = system: FAP-positive tumor; design: method as in PMID 35589404; settings: cited from earlier work
# [9] = In vitro stability in saline solution (bulk solution), HPLC/iTLC; format: physicochemical
# Experimental: The in vitro stability of the radiopharmaceuticals preparations in saline solution was evaluated on the bulk solution i.e., with the highest radioactive concentration. In addition, the in vitro stability of radiopharmaceutical preparations was tested by incubating 10 MBq of each radiolabeled compounds in 1 mL of human plasma at 37 °C. Small aliquots of bulk solution were analyzed by HPLC and iTLC and 10 µL of plasma solution were analyzed by iTLC at 30, 60, 90, 120, 150 and 180 min for [^68Ga]Ga-DOTAGA/NODAGA-OncoFAP derivatives, 50, 100, 150 and 200-min for [^18F]AlF-NOTA/NODAGA-OncoFAP or 1, 3, 6, 12, 24, and 2, 3, 4, 7 and 9 days for [^177Lu]Lu-DOTAGA-OncoFAP, as show in Figure 3.
# [10] = 1-h time point, 500 nmol/kg i.v.
smiles,measurement,setting,value
N#C[C@@H]1CC(F)(F)CN1C(=O)CNC(=O)c1ccnc2c(NC(=O)CCC(=O)NCCNC(=O)CCC(C(=O)O)N3CCN(CC(=O)[O-])CCN(CC(=O)[O-])CC3)cccc12.[18F][Al+2] (stereo partly shown) [[^18F]AlF-NODAGA-OncoFAP],LogD7.4,[1],-2.88±0.16
same,LogP,[1],-3.02± 015
N#C[C@@H]1CC(F)(F)CN1C(=O)CNC(=O)c1ccnc2c(NC(=O)CCC(=O)NCCNC(=O)CCC(C(=O)[O-])N3CCN(CC(=O)[O-])CCN(CC(=O)[O-])CC3)cccc12.[68Ga+3] (stereo partly shown) [[^68Ga]Ga-NODAGA-OncoFAP],LogD7.4,[1],-2.48± 0.09
same,LogP,[1],-2.68± 0.14
N#C[C@@H]1CC(F)(F)CN1C(=O)CNC(=O)c1ccnc2c(NC(=O)CCC(=O)NCCNC(=O)CCC(C(=O)[O-])N3CCN(CC(=O)[O-])CCN(CC(=O)[O-])CC3)cccc12.[177Lu+3] (stereo partly shown) [[177Lu]Lu-NODAGA-OncoFAP],complex formation with recombinant hFAP (co-elution),[2],strong affinity
same,interaction with hCAIX (co-elution),[3],no significant interaction
N#C[C@@H]1CC(F)(F)CN1C(=O)CNC(=O)c1ccnc2c(NC(=O)CCC(=O)O)cccc12 [OncoFAP],Kd,[4],0.68 nM
N#C[C@@H]1CC(F)(F)CN1C(=O)CNC(=O)c1ccnc2c(NC(=O)CCC(=O)N3CCN(C(=O)CN4CCN(CC(=O)[O-])CCN(CC(=O)[O-])CC4)CC3)cccc12.[68Ga+3] [[^68Ga]Ga-NOTA-OncoFAP],LogD7.4,[1],-2.19± 0.11
same,LogP,[1],-2.38± 0.11
N#C[C@@H]1CC(F)(F)CN1C(=O)CNC(=O)c1ccnc2c(NC(=O)CCC(=O)N3CCN(C(=O)CN4CCN(CC(=O)[O-])CCN(CC(=O)[O-])CC4)CC3)cccc12.[18F][Al+2] [[^18F]AlF-NOTA-OncoFAP],absolute binding value,[5],0.25%
same,LogD7.4,[1],-2.01± 0.25
same,LogP,[1],-2.15± 0.18
same,tumor-to-blood ratio,[6]; [10],6.5
same,tumor-to-kidney ratio,[6]; [10],4.3
same,tumor accumulation,"[6]; 1 h post intravenous injection, 500 nmol/kg, HT-1080.hFAP",6.6 % ID/g
N#C[C@@H]1CC(F)(F)CN1C(=O)CNC(=O)c1ccnc2c(NC(=O)CCC(=O)NCCNC(=O)CCC(C(=O)O)N3CCN(CC(=O)[O-])CCN(CC(=O)[O-])CCN(CC(=O)[O-])CC3)cccc12.[68Ga+3] (stereo partly shown) [[^68Ga]Ga-DOTAGA-OncoFAP],LogD7.4,[1],-2.39 ± 0.12
same,LogP,[1],-2.57± 0.15
same,complex formation with recombinant hFAP (co-elution),[2],forms a stable complex
same,tumor-to-blood ratio,[7]; at 1 h p.i.,8.6 ± 5.1
same,tumor-to-blood ratio,[7]; at 3 h p.i.,38.1 ± 33.1
N#C[C@@H]1CC(F)(F)CN1C(=O)CNC(=O)c1ccnc2c(NC(=O)CCC(=O)NCCNC(=O)CCC(C(=O)O)N3CCN(CC(=O)[O-])CCN(CC(=O)[O-])CCN(CC(=O)[O-])CC3)cccc12.[177Lu+3] (stereo partly shown) [[^177Lu]Lu-DOTAGA-OncoFAP],LogD7.4,[1],-1.85± 0.05
same,LogP,[1],-2.01± 0.08
same,uptake in the FAP-positive tumor,[8]; 10 min after injection,32 % injected dose [ID]/g
same,tumor uptake,[8]; at 24 h p.i.,~ 4 % ID/g
same,sustained uptake in the lesions,[8]; over the first 6 h time window,higher than 20 % ID/g
same,radiolysis,"[9]; every 24 h, without gentisic acid",about 10%
same,stability at high radioactive concentrations,"[9]; in words, without stabilizer",intrinsic instability
same,radiolysis,"[9]; within 8 days, with addition of 20 mg of gentisic acid as radical scavenger",about 2%
